According to patent US20100292335A1, “USE OF ORGANIC COMPOUNDS” (priority 2007, published 2010):

System: bradykinin peptides BK-(1-7), BK-(1-9)
Assay: Bradykinin peptide levels in blood and tissues of non-diabetic and streptozotocin-diabetic (mRen-2)27 rats after 16 weeks aliskiren
Format: in vivo, transgenic (mRen-2)27 rats
Conditions: for Effect of aliskiren on BK-(1-7) level / Effect of aliskiren on BK-(1-9) level / Effect of aliskiren on BK-(1-7)/(1-9) ratio: 10 mg/kg/day 16 weeks, 10 mg/kg/day; for Heart BK-(1-7), Mean ± SEM / Heart BK-(1-7)/(1-9) ratio, Mean ± SEM / Heart BK-(1-9), Mean ± SEM: aliskiren 10 mg/kg/day 16 weeks
Method: As an example, diabetes is induced in 6 week old female heterozygous transgenic (mRen-2)27 rats by administration of 55 mg/kg streptozotocin diluted in […], pH 4.5 by tail vein injection. Non-diabetic rats are injected with citrate buffer alone [Campbell D J, Kelly D J, Wilkinson-Berka J L, Cooper M E, Skinner S L. Increased bradykinin and “normal” angiotensin peptide levels in diabetic Sprague-Dawley and transgenic (mRen-2)27 rats. Kidney Int 1999; 56:211-221.1. Diabetic and non-diabetic rats are randomized to receive either no drug or aliskiren (10 mg/kg/day by osmotic minipump) from 6-7 weeks of age for a duration of 16 weeks. The minipumps are changed every 2 weeks and the amount of aliskiren in the minipumps is adjusted according to the body weight of the rats. Diabetic rats are injected subcutaneously with 2-4 units insulin (Ultratard, Novo Nordisk, Denmark).every second day (3 times a week). If rats have continuously elevated blood glucose levels (>33.3 mmol/L) over a couple of weeks, they are injected with 3 units every day. When glucose levels decrease to 33.3 mmol/L they are administered 2-4 units insulin every second day. After 16 weeks drug treatment, rats are anesthetized with ketamine (75 mg/kg) and xylazine (10 mg/kg) in combination, and blood and tissue is collected for peptide assay. Peptides are measured as previously described [Lawrence A C, Evin G, Kladis A, Campbell D J. An alternative strategy for the radioimmunoassay of angiotensin peptides using amino-terminal-directed antisera: measurement of eight angiotensin peptides in human plasma. J Hypertens 1990; 8:715-724; Campbell D J, Lawrence A C, Towrie A, Kladis A, Valentijn A J. Differential regulation of angiotensin peptide levels in plasma and kidney of the rat. Hypertension 1991; 18:763-773; Campbell D J, Kladis A, Duncan A-M. Nephrectomy, converting enzyme inhibition and angiotensin peptides. Hypertension 1993; 22:513-522; Campbell D J, Kladis A, Duncan A-M. Bradykinin peptides in kidney, blood, and other tissues of the rat. Hypertension 1993; 21:155-165; Campbell D J, Kladis A, Duncan A-M. Effects of converting enzyme inhibitors on angiotensin and bradykinin peptides. Hypertension 1994; 23:439-449; Campbell D J, Rong P, Kladis A, Rees B, Skinner S L. Angiotensin and bradykinin peptides in the TGR(mRen-2)27 rat. Hypertension 1995; 25:1014-1020]. Only the left kidney is collected for peptide assay. The heart refers to the cardiac ventricles (both right and left ventricle). The Ang I levels in heart are below the limit of detection of the assay.
There are 4 groups of rats: • 1. Non-diabetic control. • 2. Non-diabetic administered aliskiren 10 mg/kg/day. • 3. Diabetic control. • 4. Diabetic administered aliskiren 10 mg/kg/day.

[1] = Heart, control rats, listed as Aliskiren
[2] = Heart, diabetic rats, listed as Aliskiren

In the case of `COCCCOc1cc(C[C@@H](C[C@H](N)[C@@H](O)C[C@H](C(=O)NCC(C)(C)C(N)=O)C(C)C)C(C)C)ccc1OC` [aliskiren, 2(S),4(S),5(S),7(S)-N-(3-amino-2,2-dimethyl-3-oxopropyl)-2,7-di(1-methylethyl)-4-hydroxy-5-amino-8-[4-methoxy-3-(3-methoxy-propoxy)phenyl]-octanamide], the “Effect of aliskiren on BK-(1-7) level” value (Blood, control rats) is reported as “does not affect”, the “Effect of aliskiren on BK-(1-9) level” value (Blood, control rats) is reported as “does not affect” and the “Effect of aliskiren on BK-(1-7) level” value (Blood, diabetic rats) is reported as “does not affect”. For the same molecule, the “Effect of aliskiren on BK-(1-7)/(1-9) ratio” value (Blood, diabetic rats) was “increase”, the “Effect of aliskiren on BK-(1-9) level” value (Blood, diabetic rats) was “does not affect” and the “Effect of aliskiren on BK-(1-7) level” value (Brain, control rats) was “does not affect”. The “Effect of aliskiren on BK-(1-9) level” value (Brain, control rats) was “does not affect”, the “Effect of aliskiren on BK-(1-7) level” value (Brain, diabetic rats) was “does not affect” and the “Effect of aliskiren on BK-(1-9) level” value (Brain, diabetic rats) was “does not affect”. The “Effect of aliskiren on BK-(1-7) level” value (Heart, control rats) was “increased”, the “Effect of aliskiren on BK-(1-7)/(1-9) ratio” value (Heart, control rats) was “did not affect” and the “Effect of aliskiren on BK-(1-9) level” value (Heart, control rats) was “increased”. The “Effect of aliskiren on BK-(1-7) level” value [1] was “increase”, the “Effect of aliskiren on BK-(1-7)/(1-9) ratio” value [1] was “no change” and the “Effect of aliskiren on BK-(1-9) level” value [1] was “increase”. The “Heart BK-(1-7), Mean ± SEM” value (Heart, control rats) was 19.2 ± 2.5 fmol/g, the “Heart BK-(1-7)/(1-9) ratio, Mean ± SEM” value (Heart, control rats) was 1.88 ± 0.18 mol/mol and the “Heart BK-(1-9), Mean ± SEM” value (Heart, control rats) was 10.6 ± 1.2 fmol/g. The “Effect of aliskiren on BK-(1-7) level” value (Heart, diabetic rats) was “increased”, the “Effect of aliskiren on BK-(1-7)/(1-9) ratio” value (Heart, diabetic rats) was “did not affect” and the “Effect of aliskiren on BK-(1-9) level” value (Heart, diabetic rats) was “increased”. For the same molecule, the “Effect of aliskiren on BK-(1-7) level” value [2] was “increase”, the “Effect of aliskiren on BK-(1-7)/(1-9) ratio” value [2] was “no change” and the “Effect of aliskiren on BK-(1-9) level” value [2] was “increase”. The “Heart BK-(1-7), Mean ± SEM” value (Heart, diabetic rats) was 13.9 ± 1.5 fmol/g, the “Heart BK-(1-7)/(1-9) ratio, Mean ± SEM” value (Heart, diabetic rats) was 2.47 ± 0.37 mol/mol and the “Heart BK-(1-9), Mean ± SEM” value (Heart, diabetic rats) was 6.4 ± 0.7 fmol/g. For the same molecule, the “Effect of aliskiren on BK-(1-7) level” value (Kidney, control rats) was “does not affect”, the “Effect of aliskiren on BK-(1-9) level” value (Kidney, control rats) was “does not affect” and the “Effect of aliskiren on BK-(1-7) level” value (Kidney, diabetic rats) was “does not affect”. For the same molecule, the “Effect of aliskiren on BK-(1-9) level” value (Kidney, diabetic rats) was “does not affect”, the “Effect of aliskiren on BK-(1-7) level” value (Lung, control rats) was “does not affect” and the “Effect of aliskiren on BK-(1-9) level” value (Lung, control rats) was “does not affect”. For the same molecule, the “Effect of aliskiren on BK-(1-7) level” value (Lung, diabetic rats) was “does not affect” and the “Effect of aliskiren on BK-(1-9) level” value (Lung, diabetic rats) was “does not affect”.
